Assay: MRI of mice after tail vein injection, maximum pixel intensity of the kidney
Assay type: in vivo, mouse
Experimental: FIG. 2A-2B. MRI of a mouse injected with Magnevist® (gadopentetate dimeglumine) (A) and a mouse injected with nanoparticles loaded with gadopentetate dimeglumine (B). The left images are pre-injection, center images are 4 hours post injection, and right images are 24 hours post injection. […] A study was conducted to address the efficacy with which CA-loaded particles can provide MRI images. MRI images of mice were acquired pre-injection. Subsequently mice were injected (via the tail vein) with one of the following: i) a suspension of empty nanoparticles; ii) a suspension of nanoparticles loaded with Magnevist® (gadopentetate dimeglumine, a commercial Gd based MRI contrast reagent); and iii) Magnevist® solution. Mice were then imaged immediately after injection of each of these materials and again at 2 hours, 4 hours and 24 hours post injection. Maximum pixel intensity of the kidney was measured (relative to the background) at each time point using ImageJ software.

In the case of `CNC[C@H](O)[C@@H](O)[C@H](O)[C@H](O)CO.CNC[C@H](O)[C@@H](O)[C@H](O)[C@H](O)CO.O=C([O-])CN(CCN(CC(=O)[O-])CC(=O)O)CCN(CC(=O)[O-])CC(=O)O.[Gd+3]` [Magnevist®, gadopentetate dimeglumine], the “increase of maximum pixel intensity of the kidney” value (4 hours post-injection, tail vein, one mouse each) is reported as 32%, the “signal intensity throughout the GI tract” value (24 hour time point) is reported as “not observed” and the “MRI contrast (FIG. 2)” value (24 hours post-injection) is reported as “returned to pre-injection levels”. For the same compound, the “change of maximum pixel intensity of the kidney” value (24 hours post-injection, additional increase over 4 hours) was “returned to pre-injection levels”.

Reference: patent US20120213697A1, “VERSATILE NANOPARTICULATE BIOMATERIAL FOR CONTROLLED DELIVERY AND/OR CONTAINMENT OF THERAPEUTIC AND DIAGNOSTIC MATERIAL” (Albert Einstein College of Medicine of Yeshiva University, priority 2009, published 2012)
